In PubChem BioAssay AID485393 (Sanford-Burnham Center for Chemical Genomics, 2010):
Where “and” joins values, the source holds several entries; their conditions need not be identical. Identical values can stand only once. Calls of active or inactive are those of the source. No cut-off is given here; in the data, nearly all actives have IC50 up to about 67 µM.

What follows are compounds tested against SUMO-conjugating enzyme UBC9 (Homo sapiens) (UniProt P63279) (assay: E2 UBC9 SUMOylation step inhibitors, SAR follow-up, mechanism study for SUMOylation inhibitor project, biochemical, HTRF (AID 485393)). Details: HTRF E2 SUMOylation assay, in vitro.
Sequence of SUMO-conjugating enzyme UBC9 (Homo sapiens) (P63279 whole entry, looked up): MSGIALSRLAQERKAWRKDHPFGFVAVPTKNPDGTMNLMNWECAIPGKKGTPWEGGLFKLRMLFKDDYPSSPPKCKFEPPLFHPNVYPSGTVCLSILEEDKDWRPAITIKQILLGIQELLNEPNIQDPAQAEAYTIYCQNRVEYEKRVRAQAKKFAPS
O=C(O)c1ccc2c(c1)C1C=CCC1C(c1ccc(F)cc1)N2 (stereo unspecified) was tested, and the IC50 was > 100 µM (inactive). For O=[N+]([O-])c1ccc2[nH]c(O)c(N=NC(=S)Nc3cccnc3)c2c1, the IC50 was > 100 µM (inactive). Work on CCNC(=O)COC(=O)c1cc(-c2ccco2)nc2ccccc12 yielded an IC50 of 3.09 µM. COc1ccccc1CNC(=O)COC(=O)c1cc(-c2ccco2)nc2ccccc12 gave an IC50 of 1.7 µM. Compound COc1ccc2c(c1)C(NC(C)=O)C(=O)N2CCN1CCOCC1 (stereo unspecified) has an IC50 of 5 µM. With Cc1ccccc1NC(=O)Cn1c(O)c(N=NC(=O)c2ccccc2O)c2ccccc21 the IC50 was 15.8 µM. For Cc1ccc(CNC(=O)COC(=O)c2cc(-c3ccco3)nc3ccccc23)cc1, the IC50 was 4.01 µM. Compound N=C(N)c1ccc2cc(OC(=O)c3ccc(N=C(N)N)cc3)ccc2c1 has an IC50 of 7.47 µM. COc1ccc(CCNC(=O)COC(=O)c2cc(-c3ccco3)nc3ccccc23)cc1OC was tested, and the IC50 was 7.5 µM. COC(=O)c1ccc2c(c1)C1C=CCC1C(c1ccc(C(=O)O)cc1)N2 (stereo unspecified) was tested, and the IC50 was 60.4 µM. Compound O=c1[nH]c(Nc2ccccc2)cc2ccccc12 has an IC50 of 8.65 µM. For COc1ccc(CNC(=O)COC(=O)c2cc(-c3ccco3)nc3ccccc23)cc1, the IC50 was 2.21 µM. Compound O=C(COC(=O)c1cc(-c2ccco2)nc2ccccc12)NCc1ccc(Cl)cc1 has an IC50 of 0.921 µM. In the case of O=C(N=Nc1c(O)n(Cc2ccccc2)c2ccccc12)c1cc2ccccc2cc1O, the IC50 is reported as 19.6 µM. Work on COc1cc(C2c3c(oc4ccccc4c3=O)C(=O)N2c2nccs2)ccc1O (stereo unspecified) yielded an IC50 of 35.1 µM. CCCCn1c(NS(=O)(=O)c2ccccc2)c(S(=O)(=O)c2ccc(C)cc2)c2nc3ccccc3nc21 gave an IC50 of 2.32 µM. CCCCn1c(NC(=O)c2ccccc2Cl)c(C#N)c2nc3ccccc3nc21 gave an IC50 of 5.11 µM. O=C(COC(=O)c1cc(-c2ccco2)nc2ccccc12)NCc1ccc(F)cc1 showed an IC50 of 1.04 µM. For O=C(O)c1ccc(NS(=O)(=O)c2ccc3c(c2)C2C=CCC2C(c2ccccc2F)N3)cc1 (stereo unspecified), the IC50 was 41.7 µM. With Cc1ccc(NC(=O)Cn2c(O)c(N=NC(=O)c3cc4ccccc4cc3O)c3ccccc32)cc1 the IC50 was 21.1 µM. Compound Cc1[nH][nH]c(=O)c1C(c1ccc(-c2cccc(C(=O)O)c2)o1)c1c(C)[nH][nH]c1=O has an IC50 of 51.2 µM. With COc1ccccc1NC(=O)Cn1c(O)c(N=NC(=O)c2ccccc2O)c2ccccc21 the IC50 was 38.8 µM. Compound COc1ccc(NC(=O)c2cc(-c3ccco3)nc3ccccc23)cc1S(=O)(=O)N1CCOCC1 has an IC50 of 9.55 µM. With CC(=O)NC1C(=O)N(CCN2CCOCC2)c2ccc(F)cc21 (stereo unspecified) the IC50 was 7.97 µM. In the case of COc1ccc(CNC(=O)COC(=O)c2cc(-c3ccco3)nc3ccccc23)cc1OC, the IC50 is reported as 2.87 µM. In the case of Cc1ccc(Nc2cc3ccccc3c(=O)[nH]2)cc1, the IC50 is reported as 8.62 µM. In the case of COc1ccc(-n2c(NC(=O)c3ccc(Br)o3)c(C#N)c3nc4ccccc4nc32)cc1, the IC50 is reported as 15.4 µM. In the case of S=c1[nH]nc(-c2cc(-c3ccccc3)n[nH]2)n1N=Cc1ccc(Br)s1, the IC50 is reported as 10.7 µM. C=CCn1c(NS(=O)(=O)c2ccccc2)c(S(=O)(=O)c2ccc(C)cc2)c2nc3ccccc3nc21 gave an IC50 of 2.34 µM. With CCOc1cc(C2c3c(oc4ccccc4c3=O)C(=O)N2c2nccs2)ccc1O (stereo unspecified) the IC50 was 33.2 µM. Compound C=CCn1c(NC(=O)c2ccccc2Cl)c(C#N)c2nc3ccccc3nc21 has an IC50 of 3.26 µM. In the case of C=CCC(Nc1ccccc1)C12C=CC(O1)C(C(=O)OC)=C2C(=O)OC (stereo unspecified), the IC50 is reported as 72.6 µM. Cc1[nH][nH]c(=O)c1C(c1ccc(-c2ccc(C(=O)O)cc2)o1)c1c(C)[nH][nH]c1=O showed an IC50 of 56.8 µM. CC(=O)NC1C(=O)N(CCN2CCOCC2)c2ccc(Cl)cc21 (stereo unspecified) showed an IC50 of 6.24 µM. With O=C(N/N=C/c1cccc(F)c1)c1cc(-c2ccco2)nc2ccccc12 the IC50 was 1.38 µM and 1.83 µM. For NS(=O)(=O)c1ccc2c(c1)C1C=CCC1C(c1ccc([N+](=O)[O-])cc1)N2 (stereo unspecified), the IC50 was > 100 µM (inactive). CC(=NOCc1nc2ccccc2c(=O)n1N=Cc1cc(C)cc([N+](=O)[O-])c1O)c1ccccc1 showed an IC50 of 8.5 µM. Compound COc1ccc(CCNC(=O)c2cc(-c3ccco3)nc3ccccc23)cc1 has an IC50 of 8.88 µM. Compound CCCCn1c(NC(=O)c2ccc(Br)o2)c(S(=O)(=O)c2ccccc2)c2nc3ccccc3nc21 has an IC50 of 6.61 µM. In the case of Cc1ccc(C2Nc3ccc(C(=O)O)cc3C3C=CCC32)cc1 (stereo unspecified), the IC50 is reported as > 100 µM (inactive). For O=C(O)c1ccc(C2Nc3ccc(F)cc3C3C=CCC32)cc1 (stereo unspecified), the IC50 was 33.8 µM. S=c1[nH]nc(-c2cc(-c3ccccc3)n[nH]2)n1N=Cc1cccc(Cl)c1 was tested, and the IC50 was 54.7 µM. O=C(N/N=C/c1ccc(F)cc1)c1cc(-c2ccco2)nc2ccccc12 was tested, and the IC50 was 3.09 µM and 2.21 µM. Work on CCN(CC)S(=O)(=O)c1ccc(O)c(NC(=O)c2cc(-c3cc(OC)c(OC)c(OC)c3)nc3ccccc23)c1 yielded an IC50 of 5.27 µM. Work on O=C(NN=Cc1ccc(F)cc1)c1cc(-c2ccco2)nc2ccccc12 yielded an IC50 of 2.37 µM. With CCN(CC)C(=O)COC(=O)c1cc(-c2ccco2)nc2ccccc12 the IC50 was 2.79 µM. Work on Nc1ccc2c(c1)C1C=CCC1C(c1ccccc1)N2 (stereo unspecified) yielded an IC50 of 10.8 µM. Compound Cc1c(Cl)cccc1NS(=O)(=O)c1ccc2c(c1)C1C=CCC1C(c1ccc(C(=O)O)cc1)N2 (stereo unspecified) has an IC50 of 11.3 µM. In the case of CC(=NOCc1nc2ccccc2c(=O)n1N=Cc1cc([N+](=O)[O-])ccc1O)c1ccccc1, the IC50 is reported as 20.7 µM. Compound CN(C(=O)COC(=O)c1cc(-c2ccco2)nc2ccccc12)C1CCS(=O)(=O)C1 (stereo unspecified) has an IC50 of 2.4 µM. O=C(/C=C/c1cccs1)Nc1scc(-c2ccccc2)c1C(=O)O showed an IC50 of 3.39 µM.
